Experimental data from patent US6358885B1, “Substituted phenylheterocyclic herbicides” (Mississippi State University, priority 1992, dated 2002).

How the values were obtained:
[1] = tested on: velvetleaf; assay: Test A preemergence/postemergence greenhouse plant response rating 0 to 10; format: in vivo, Abutilon theophrasti; settings: 0 to 10 scale, 0 is no effect, 10 is complete control
Protocol: (§1) Seeds of barnyardgrass (Echinochchloa crus-galli), cheatgrass (Bromus secalinus), cocklebur (Xanthium pensylvanicum), crabgrass (Digitaria spp.), giant foxtail (Setaria faberii), morningglory (Ipomoea spp.), sorghum (Sorghum bicolor), velvetleaf (Abutilon theophrasti), and wild oat (Avena fatua) were planted into a sandy loam soil and treated preemergence with test chemicals dissolved in a non-phytotoxic solvent. At the same time, these crop and weed species were also treated postemergence with test chemicals. Plants ranged in height from two to eighteen cm and were in the two to three leaf stage for the postemergence treatment. Treated plants and untreated controls were maintained in a greenhouse for approximately eleven days, after which all treated plants were compared to untreated controls and visually evaluated for injury. Plant response ratings, summarized in Table A, are based on a 0 to 10 scale where 0 is no effect and 10 is complete control. A dash (-) response means no test results.

[2] = tested on: wild oat; assay: Test A preemergence/postemergence greenhouse plant response rating 0 to 10; format: in vivo, Avena fatua; settings: 0 to 10 scale, 0 is no effect, 10 is complete control
Protocol: as §1

[3] = tested on: cocklebur; assay: as above; format: in vivo, Xanthium pensylvanicum; settings: 0 to 10 scale, 0 is no effect, 10 is complete control
Protocol: as §1

[4] = tested on: crabgrass; assay: as above; format: in vivo, Digitaria spp.; settings: 0 to 10 scale, 0 is no effect, 10 is complete control
Protocol: as §1

[5] = tested on: sorghum; assay: as above; format: in vivo, Sorghum bicolor; settings: 0 to 10 scale, 0 is no effect, 10 is complete control
Protocol: as §1

[6] = tested on: cheatgrass; assay: as above; format: in vivo, Bromus secalinus; settings: 0 to 10 scale, 0 is no effect, 10 is complete control
Protocol: as §1

[7] = tested on: morningglory; assay: as above; format: in vivo, Ipomoea spp.; settings: 0 to 10 scale, 0 is no effect, 10 is complete control
Protocol: as §1

[8] = tested on: giant foxtail; assay: as above; format: in vivo, Setaria faberii; settings: 0 to 10 scale, 0 is no effect, 10 is complete control
Protocol: as §1

[9] = tested on: barnyardgrass; assay: as above; format: in vivo, Echinochchloa crus-galli; settings: 0 to 10 scale, 0 is no effect, 10 is complete control
Protocol: as §1

[10] = tested on: black nightshade; assay: Test H postemergence greenhouse plant response rating 0 to 10; format: in vivo, Solanum ptycanthum dunal; settings: 0 to 10 scale (0 no effect, 10 complete control)
Source text: (§2) Seeds of barnyardgrass (Echinochloa crus-galli), black nightshade (Solanum ptycanthum dunal), cocklebur (Xanthium pensylvanicum), common ragweed (Ambrosia elatior), corn (Zea mays), cotton (Gossypium hirsutam), crabgrass (Digitaria spp.), giant foxtail (Setaria faberii), jimsonweed (Datura stramonium), johnson grass (Sorghum halepense), morningglory (Ipomoea spp.), smartweed (Polygonum pensylvanicum), soybean (Glycine max), velvetleaf (Abutilon theophrasti) and purple nutsedge (Cyperus rotundus) tubers were planted into a silt loam soil. These crops and weeds were grown in the greenhouse until the plants ranged in height from two to eighteen cm (one to four leaf stage), then treated postemergence with the test chemicals dissolved in a non-phytotoxic solvent. Pots receiving these postemergence treatments were placed in the greenhouse and maintained according to routine greenhouse procedures. Treated plants and untreated controls were maintained in the greenhouse approximately 21 days after application of the test compound. Visual evaluations of plant injury responses were then recorded.

[11] = tested on: cotton; assay: as above; format: in vivo, Gossypium hirsutam; settings: 0 to 10 scale (0 no effect, 10 complete control)
Source text: as §2

[12] = tested on: corn; assay: as above; format: in vivo, Zea mays; settings: 0 to 10 scale (0 no effect, 10 complete control)
Source text: as §2

[13] = tested on: cocklebur; assay: as above; format: in vivo, Xanthium pensylvanicum; settings: 0 to 10 scale (0 no effect, 10 complete control)
Source text: as §2

[14] = tested on: smartweed; assay: as above; format: in vivo, Polygonum pensylvanicum; settings: 0 to 10 scale (0 no effect, 10 complete control)
Source text: as §2

[15] = tested on: barnyardgrass; assay: as above; format: in vivo, Echinochloa crus-galli; settings: 0 to 10 scale (0 no effect, 10 complete control)
Source text: as §2

[16] = tested on: giant foxtail; assay: as above; format: in vivo, Setaria faberii; settings: 0 to 10 scale (0 no effect, 10 complete control)
Source text: as §2

[17] = tested on: morningglory; assay: as above; format: in vivo, Ipomoea spp.; settings: 0 to 10 scale (0 no effect, 10 complete control)
Source text: as §2

[18] = tested on: purple nutsedge; assay: as above; format: in vivo, Cyperus rotundus; settings: 0 to 10 scale (0 no effect, 10 complete control)
Source text: as §2

[19] = tested on: crabgrass; assay: as above; format: in vivo, Digitaria spp.; settings: 0 to 10 scale (0 no effect, 10 complete control)
Source text: as §2

[20] = tested on: soybean; assay: as above; format: in vivo, Glycine max; settings: 0 to 10 scale (0 no effect, 10 complete control)
Source text: as §2

[21] = tested on: johnson grass; assay: as above; format: in vivo, Sorghum halepense; settings: 0 to 10 scale (0 no effect, 10 complete control)
Source text: as §2

[22] = tested on: jimsonweed; assay: as above; format: in vivo, Datura stramonium; settings: 0 to 10 scale (0 no effect, 10 complete control)
Source text: as §2

[23] = tested on: velvetleaf; assay: as above; format: in vivo, Abutilon theophrasti; settings: 0 to 10 scale (0 no effect, 10 complete control)
Source text: as §2

[24] = tested on: common ragweed; assay: as above; format: in vivo, Ambrosia elatior; settings: 0 to 10 scale (0 no effect, 10 complete control)
Source text: as §2

**Q.** For `Clc1ccc(-c2nc3n(c2Cl)CCC=C3)c(Cl)c1` [Compound 1], which “Plant response rating, Velvetleaf” value ([1]; POSTEMERGENCE, Rate 1000 g/ha) is on record?
**A.** 10

**Q.** And the “Plant response rating, Velvetleaf” value ([1]; PREEMERGENCE, Rate 1000 g/ha)?
**A.** 8

**Q.** What about the melting point of the same compound?
**A.** 104 to 105 °C

**Q.** What about the “Plant response rating, Wild oats” value ([2]; POSTEMERGENCE, Rate 1000 g/ha) of the same compound?
**A.** 3

**Q.** And the “Plant response rating, Wild oats” value ([2]; PREEMERGENCE, Rate 1000 g/ha)?
**A.** 0

**Q.** What about the “Plant response rating, Cocklebur” value ([3]; POSTEMERGENCE, Rate 1000 g/ha) of the same compound?
**A.** 8

**Q.** And the “Plant response rating, Cocklebur” value ([3]; PREEMERGENCE, Rate 1000 g/ha)?
**A.** 0

**Q.** What about the “Plant response rating, Crabgrass” value ([4]; POSTEMERGENCE, Rate 1000 g/ha) of the same compound?
**A.** 5

**Q.** What about the “Plant response rating, Crabgrass” value ([4]; PREEMERGENCE, Rate 1000 g/ha) of the same compound?
**A.** 0

**Q.** And the “Plant response rating, Sorghum” value ([5]; POSTEMERGENCE, Rate 1000 g/ha)?
**A.** 4

**Q.** And the “Plant response rating, Sorghum” value ([5]; PREEMERGENCE, Rate 1000 g/ha)?
**A.** 0

**Q.** And the “Plant response rating, Cheatgrass” value ([6]; POSTEMERGENCE, Rate 1000 g/ha)?
**A.** 4

**Q.** And the “Plant response rating, Cheatgrass” value ([6]; PREEMERGENCE, Rate 1000 g/ha)?
**A.** 0

**Q.** And the “Plant response rating, Morningglory” value ([7]; POSTEMERGENCE, Rate 1000 g/ha)?
**A.** 10

**Q.** What about the “Plant response rating, Morningglory” value ([7]; PREEMERGENCE, Rate 1000 g/ha) of the same compound?
**A.** 0

**Q.** What about the “Plant response rating, Giant foxtail” value ([8]; POSTEMERGENCE, Rate 1000 g/ha) of the same compound?
**A.** 4

**Q.** And the “Plant response rating, Giant foxtail” value ([8]; PREEMERGENCE, Rate 1000 g/ha)?
**A.** 5

**Q.** And the “Plant response rating, Barnyardgrass” value ([9]; POSTEMERGENCE, Rate 1000 g/ha)?
**A.** 5

**Q.** What about the “Plant response rating, Barnyardgrass” value ([9]; PREEMERGENCE, Rate 1000 g/ha) of the same compound?
**A.** 2

**Q.** Which “Plant response rating, Velvetleaf” value ([1]; POSTEMERGENCE, Rate 2000 g/ha) does the source give for `Clc1ccc(-c2nc3n(c2Br)CCCC3)c(Cl)c1` [Compound 2] here?
**A.** 10

**Q.** What about the “Plant response rating, Velvetleaf” value ([1]; PREEMERGENCE, Rate 2000 g/ha) of the same compound?
**A.** 10

**Q.** And the “Plant response rating, Wild oats” value ([2]; POSTEMERGENCE, Rate 2000 g/ha)?
**A.** 5

**Q.** What about the “Plant response rating, Wild oats” value ([2]; PREEMERGENCE, Rate 2000 g/ha) of the same compound?
**A.** 5

**Q.** What about the “Plant response rating, Cocklebur” value ([3]; POSTEMERGENCE, Rate 2000 g/ha) of the same compound?
**A.** 10

**Q.** And the “Plant response rating, Cocklebur” value ([3]; PREEMERGENCE, Rate 2000 g/ha)?
**A.** 0

**Q.** What about the “Plant response rating, Crabgrass” value ([4]; POSTEMERGENCE, Rate 2000 g/ha) of the same compound?
**A.** 7

**Q.** What about the “Plant response rating, Crabgrass” value ([4]; PREEMERGENCE, Rate 2000 g/ha) of the same compound?
**A.** 8

**Q.** And the “Plant response rating, Sorghum” value ([5]; POSTEMERGENCE, Rate 2000 g/ha)?
**A.** 6

**Q.** And the “Plant response rating, Sorghum” value ([5]; PREEMERGENCE, Rate 2000 g/ha)?
**A.** 8

**Q.** And the “Plant response rating, Cheatgrass” value ([6]; POSTEMERGENCE, Rate 2000 g/ha)?
**A.** 7

**Q.** And the “Plant response rating, Cheatgrass” value ([6]; PREEMERGENCE, Rate 2000 g/ha)?
**A.** 6

**Q.** And the “Plant response rating, Morningglory” value ([7]; POSTEMERGENCE, Rate 2000 g/ha)?
**A.** 10

**Q.** And the “Plant response rating, Morningglory” value ([7]; PREEMERGENCE, Rate 2000 g/ha)?
**A.** 2

**Q.** And the “Plant response rating, Giant foxtail” value ([8]; POSTEMERGENCE, Rate 2000 g/ha)?
**A.** 9

**Q.** What about the “Plant response rating, Giant foxtail” value ([8]; PREEMERGENCE, Rate 2000 g/ha) of the same compound?
**A.** 10

**Q.** And the “Plant response rating, Barnyardgrass” value ([9]; POSTEMERGENCE, Rate 2000 g/ha)?
**A.** 9

**Q.** What about the “Plant response rating, Barnyardgrass” value ([9]; PREEMERGENCE, Rate 2000 g/ha) of the same compound?
**A.** 9

**Q.** Which results are given for `C#CCN1C(=O)COc2cc(F)c(-c3nn4c(c3Cl)CCCC4)cc21` [Compound 34]?
**A.** Black Nightshade plant response rating ([10]; Rate 4 g/ha): 5; Black Nightshade plant response rating ([10]; Rate 8 g/ha): 10; Black Nightshade plant response rating ([10]; Rate 16 g/ha): 10; Cotton plant response rating ([11]; Rate 4 g/ha): 10; Cotton plant response rating ([11]; Rate 8 g/ha): 10; Cotton plant response rating ([11]; Rate 16 g/ha): 10; Corn G4689A plant response rating ([12]; Rate 4 g/ha): 1; Corn G4689A plant response rating ([12]; Rate 8 g/ha): 1; Corn G4689A plant response rating ([12]; Rate 16 g/ha): 2; Cocklebur plant response rating ([13]; Rate 4 g/ha): 5; Cocklebur plant response rating ([13]; Rate 8 g/ha): 10; Cocklebur plant response rating ([13]; Rate 16 g/ha): 10; Smartweed plant response rating ([14]; Rate 4 g/ha): 5; Smartweed plant response rating ([14]; Rate 8 g/ha): 7; Smartweed plant response rating ([14]; Rate 16 g/ha): 8; Barnyardgrass plant response rating ([15]; Rate 4 g/ha): 0; Barnyardgrass plant response rating ([15]; Rate 8 g/ha): 0; Barnyardgrass plant response rating ([15]; Rate 16 g/ha): 0; Giant Foxtail plant response rating ([16]; Rate 4 g/ha): 0; Giant Foxtail plant response rating ([16]; Rate 8 g/ha): 0; Giant Foxtail plant response rating ([16]; Rate 16 g/ha): 0; Morningglory plant response rating ([17]; Rate 4 g/ha): 10; Morningglory plant response rating ([17]; Rate 8 g/ha): 10; Morningglory plant response rating ([17]; Rate 16 g/ha): 10; Nutsedge plant response rating ([18]; Rate 4 g/ha): 0; Nutsedge plant response rating ([18]; Rate 8 g/ha): 0; Nutsedge plant response rating ([18]; Rate 16 g/ha): 0; Crabgrass plant response rating ([19]; Rate 4 g/ha): 0; Crabgrass plant response rating ([19]; Rate 8 g/ha): 0; Crabgrass plant response rating ([19]; Rate 16 g/ha): 0; Soybean plant response rating ([20]; Rate 4 g/ha): 7; Soybean plant response rating ([20]; Rate 8 g/ha): 7; Soybean plant response rating ([20]; Rate 16 g/ha): 10; Johnson Grass plant response rating ([21]; Rate 4 g/ha): 0; Johnson Grass plant response rating ([21]; Rate 8 g/ha): 0; Johnson Grass plant response rating ([21]; Rate 16 g/ha): 0; Jimson weed plant response rating ([22]; Rate 4 g/ha): 10; Jimson weed plant response rating ([22]; Rate 8 g/ha): 10; Jimson weed plant response rating ([22]; Rate 16 g/ha): 10; Velvetleaf plant response rating ([23]; Rate 4 g/ha): 10; Velvetleaf plant response rating ([23]; Rate 8 g/ha): 10; Velvetleaf plant response rating ([23]; Rate 16 g/ha): 10; Common Ragweed plant response rating ([24]; Rate 4 g/ha): 0; Common Ragweed plant response rating ([24]; Rate 8 g/ha): 1; Common Ragweed plant response rating ([24]; Rate 16 g/ha): 2
